Patent US9695154B2, “Heteroaryl inhibitors of sumo activating enzyme” (MILLENNIUM PHARMACEUTICALS, INC., priority 2013, dated 2017)

Molecular target: T1, recombinant human SAE enzyme (Homo sapiens, UniProt Q9UBT2)
T1 sequence (Q9UBT2 1-640): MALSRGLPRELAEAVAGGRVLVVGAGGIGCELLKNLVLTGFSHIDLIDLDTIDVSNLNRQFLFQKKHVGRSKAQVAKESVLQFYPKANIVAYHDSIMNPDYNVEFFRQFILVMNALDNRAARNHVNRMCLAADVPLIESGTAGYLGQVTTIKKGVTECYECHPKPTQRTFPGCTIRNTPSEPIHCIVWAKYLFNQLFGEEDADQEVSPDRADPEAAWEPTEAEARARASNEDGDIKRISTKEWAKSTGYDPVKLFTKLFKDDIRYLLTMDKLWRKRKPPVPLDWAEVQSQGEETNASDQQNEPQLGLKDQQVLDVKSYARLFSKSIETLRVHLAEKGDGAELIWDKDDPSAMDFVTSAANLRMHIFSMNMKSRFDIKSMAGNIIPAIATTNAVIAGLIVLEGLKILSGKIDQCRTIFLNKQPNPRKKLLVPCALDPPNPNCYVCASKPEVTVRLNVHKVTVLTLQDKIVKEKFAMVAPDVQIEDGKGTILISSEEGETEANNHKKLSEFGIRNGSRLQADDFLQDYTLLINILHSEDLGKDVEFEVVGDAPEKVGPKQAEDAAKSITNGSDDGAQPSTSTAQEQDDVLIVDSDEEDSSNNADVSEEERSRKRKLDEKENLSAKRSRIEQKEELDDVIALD
T1 sequence (Q9UBE0 1-346 partner): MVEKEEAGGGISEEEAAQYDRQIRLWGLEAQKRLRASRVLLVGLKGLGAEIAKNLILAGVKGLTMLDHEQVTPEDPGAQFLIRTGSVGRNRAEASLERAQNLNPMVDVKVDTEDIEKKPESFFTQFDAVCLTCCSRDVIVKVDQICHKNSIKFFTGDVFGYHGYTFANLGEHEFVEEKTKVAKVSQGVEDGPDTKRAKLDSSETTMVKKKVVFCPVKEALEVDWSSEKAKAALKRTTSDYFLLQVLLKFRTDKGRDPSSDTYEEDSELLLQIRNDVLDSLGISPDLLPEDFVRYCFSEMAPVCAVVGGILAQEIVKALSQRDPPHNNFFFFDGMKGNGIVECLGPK
Assay: SAE HTRF Enzyme Assay
Assay type: biochemical
Conditions: for IC50: class symbols A-C; for inhibition at 0.111 µM / Percent Inhibition: compound concentration 0.111 μM; for inhibition at 0.111 µM: read-out: Percent Inhibition
How it was run: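 HTRF signal from Eu-anti-Flag/APC-anti-GST pairs reports Sumo-Flag loaded onto Ubc9-GST by 0.11 nM SAE. Reaction: 0.5 μM ATP, 0.125 μM Sumo-Flag, 0.01 μM Ubc9-GST, 5 mM MgCl2, pH 7.5, 105 min, 24° C. Single-concentration % inhibition or IC50 reported.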

NS(=O)(=O)OC[C@H]1C[C@@H](Nc2ncncc2C(=O)c2ccn(CC3=CCOCC3)c2)[C@@H](F)[C@@H]1O [Compound I-5, {(1R,2R,3R,4R)-4-[(5-{[1-(3,6-dihydro-2H-pyran-4-ylmethyl)-1H-pyrrol-3-yl]carbonyl}pyrimidin-4-yl)amino]-3-fluoro-2-hydroxycyclopentyl}methyl sulfamate]
IC50: 10 to 100 nM | inhibition at 0.111 µM: 89%

NS(=O)(=O)OC[C@H]1C[C@@H](Nc2ncncc2C(=O)c2ccn(Cc3ccc(F)c(C4CC4)c3)n2)C[C@@H]1O [Compound I-301, {(1R,2S,4R)-4-[(5-{[1-(3-cyclopropyl-4-fluorobenzyl)-1H-pyrazol-3-yl]carbonyl}pyrimidin-4-yl)amino]-2-hydroxycyclopentyl}methyl sulfamate]
IC50: < 10 nM | inhibition at 0.111 µM: 97%

NS(=O)(=O)OC[C@H]1C[C@@H](Nc2ncncc2C(=O)c2ccn(Cc3ccc(F)cc3Cl)n2)C[C@@H]1O [Compound I-185, {(1R,2S,4R)-4-[(5-{[1-(2-chloro-4-fluorobenzyl)-1H-pyrazol-3-yl]carbonyl}pyrimidin-4-yl)amino]-2-hydroxycyclopentyl}methyl sulfamate]
IC50: < 10 nM | inhibition at 0.111 µM: 91%

NS(=O)(=O)OC[C@H]1C[C@@H](Nc2ncncc2C(=O)c2ccn(Cc3cc(C(F)(F)F)ccc3Cl)n2)C[C@@H]1O [Compound I-50, [(1R,2S,4R)-4-{[5-({1-[2-chloro-5-(trifluoromethyl)benzyl]-1H-pyrazol-3-yl}carbonyl)pyrimidin-4-yl]amino}-2-hydroxycyclopentyl]methyl sulfamate]
IC50: < 10 nM | inhibition at 0.111 µM: 99%

NS(=O)(=O)OC[C@H]1C[C@@H](Nc2ccncc2C(=O)c2ccn(Cc3cccc(Cl)c3)c2)C[C@@H]1O [Compound I-201, {(1R,2S,4R)-4-[(3-{[1-(3-chlorobenzyl)-1H-pyrrol-3-yl]carbonyl}pyridin-4-yl)amino]-2-hydroxycyclopentyl}methyl sulfamate]
IC50: < 10 nM | inhibition at 0.111 µM: 98%

NS(=O)(=O)OC[C@H]1C[C@@H](Nc2ccncc2C(=O)c2ccn(Cc3cccc(Cl)c3)n2)C[C@@H]1O [Compound I-52, {(1R,2S,4R)-4-[(3-{[1-(3-Chlorobenzyl)-1H-pyrazol-3-yl]carbonyl}pyridin-4-yl)amino]-2-hydroxycyclopentyl}methyl sulfamate]
IC50: < 10 nM | inhibition at 0.111 µM: 99%

COCc1ccc(Cn2ccc(C(=O)c3cncnc3N[C@@H]3C[C@H](COS(N)(=O)=O)[C@@H](O)[C@@H]3F)c2)o1 [Compound I-41, [(1R,2R,3R,4R)-3-fluoro-2-hydroxy-4-({5-[(1-{[5-(methoxymethyl)-2-furyl]methyl}-1H-pyrrol-3-yl)carbonyl]pyrimidin-4-yl}amino)cyclopentyl]methyl sulfamate]
IC50: < 10 nM | inhibition at 0.111 µM: 94%

NS(=O)(=O)OC[C@H]1C[C@@H](Nc2ncncc2C(=O)c2cc(Br)n(Cc3cccc(Br)c3)c2)[C@@H](F)[C@@H]1O [Compound I-272, {(1R,2R,3R,4R)-4-[(5-{[5-bromo-1-(3-bromobenzyl)-1H-pyrrol-3-yl]carbonyl}pyrimidin-4-yl)amino]-3-fluoro-2-hydroxycyclopentyl}methyl sulfamate]
IC50: < 10 nM | inhibition at 0.111 µM: 99%

NS(=O)(=O)OC[C@H]1C[C@@H](Nc2ncncc2C(=O)c2ccn(Cc3c(F)c(F)c(F)c(F)c3F)n2)C[C@@H]1O [Compound I-202, {(1R,2S,4R)-2-hydroxy-4-[(5-{[1-(pentafluorobenzyl)-1H-pyrazol-3-yl]carbonyl}pyrimidin-4-yl)amino]cyclopentyl}methyl sulfamate]
IC50: 10 to 100 nM | inhibition at 0.111 µM: 83%

NS(=O)(=O)OC[C@H]1C[C@@H](Nc2ncncc2C(=O)c2ccn(Cc3ccc(F)cc3F)n2)C[C@@H]1O [Compound I-62, {(1R,2S,4R)-4-[(5-{[1-(2,4-difluorobenzyl)-1H-pyrazol-3-yl]carbonyl}pyrimidin-4-yl)amino]-2-hydroxycyclopentyl}methyl sulfamate]
IC50: < 10 nM | inhibition at 0.111 µM: 96%

NS(=O)(=O)OC[C@H]1C[C@@H](Nc2ncncc2C(=O)c2ccn(CC#CC3(O)CCOCC3)n2)C[C@@H]1O [Compound I-27, [(1R,2S,4R)-2-hydroxy-4-{[5-({1-[3-(4-hydroxytetrahydro-2H-pyran-4-yl)prop-2-yn-1-yl]-1H-pyrazol-3-yl}carbonyl)pyrimidin-4-yl]amino}cyclopentyl]methyl sulfamate]
IC50: 100 to 1000 nM | inhibition at 0.111 µM: 9%

NS(=O)(=O)OC[C@H]1C[C@@H](Nc2ncncc2C(=O)c2ccn(Cc3cccc(I)c3)n2)[C@@H](F)[C@@H]1O [Compound I-42, {(1R,2R,3R,4R)-3-fluoro-2-hydroxy-4-[(5-{[1-(3-iodobenzyl)-1H-pyrazol-3-yl]carbonyl}pyrimidin-4-yl)amino]cyclopentyl}methyl sulfamate]
IC50: < 10 nM | inhibition at 0.111 µM: 99%

C=CC(=O)Nc1cccc(Cn2ccc(C(=O)c3cncnc3N[C@@H]3C[C@H](COS(N)(=O)=O)[C@@H](O)[C@H]3O)n2)c1 [Compound I-313, [(1R,2R,3S,4R)-4-{[5-({1-[3-(Acryloylamino)benzyl]-1H-pyrazol-3-yl}carbonyl)pyrimidin-4-yl]amino}-2,3-dihydroxycyclopentyl]methyl sulfamate]
IC50: < 10 nM | inhibition at 0.111 µM: 95%

CC(C)(O)c1cc(C(=O)c2cncnc2N[C@@H]2C[C@H](COS(N)(=O)=O)[C@@H](O)C2)nn1Cc1cccc(Br)c1 [Compound I-367, {(1R,2S,4R)-4-[(5-{[1-(3-bromobenzyl)-5-(2-hydroxypropan-2-yl)-1H-pyrazol-3-yl]carbonyl}pyrimidin-4-yl)amino]-2-hydroxycyclopentyl}methyl sulfamate]
IC50: < 10 nM | inhibition at 0.111 µM: 99%

NS(=O)(=O)OC[C@H]1C[C@@H](Nc2ncncc2C(=O)c2ccn(Cc3ccc(F)c(Br)c3)c2)C[C@@H]1O [Compound I-279, {(1R,2S,4R)-4-[(5-{[1-(3-bromo-4-fluorobenzyl)-1H-pyrrol-3-yl]carbonyl}pyrimidin-4-yl)amino]-2-hydroxycyclopentyl}methyl sulfamate]
IC50: < 10 nM | inhibition at 0.111 µM: 98%

COC(C)c1cc(C(=O)c2cncnc2N[C@@H]2C[C@H](COS(N)(=O)=O)[C@@H](O)C2)nn1Cc1cccc(Br)c1 (single isomer, unassigned) [Compound I-369a, [(1R,2S,4R)-4-{[5-({1-(3-bromobenzyl)-5-[(1S)-1-methoxyethyl]-1H-pyrazol-3-yl}carbonyl)pyrimidin-4-yl]amino}-2-hydroxycyclopentyl]methyl sulfamate or [(1R,2S,4R)-4-{[5-({1-(3-bromobenzyl)-5-[(1R)-1-methoxyethyl]-1H-pyrazol-3-yl}carbonyl)pyrimidin-4-yl]amino}-2-hydroxycyclopentyl]methyl sulfamate]
IC50: < 10 nM | Percent Inhibition: 98%

NS(=O)(=O)OC[C@H]1C[C@@H](Nc2ncncc2C(=O)c2ccn(CC3CC3c3ccccc3)c2)[C@@H](F)[C@@H]1O (single isomer, unassigned) [Compound I-9, [(1R,2R,3R,4R)-3-fluoro-2-hydroxy-4-{[5-({1-[(1R,2R)-(2-phenylcyclopropyl)methyl]-1H-pyrrol-3-yl}carbonyl)pyrimidin-4-yl]amino}cyclopentyl]methyl sulfamate or [(1R,2R,3R,4R)-3-fluoro-2-hydroxy-4-{[5-({1-[(1S,2S)-(2-phenylcyclopropyl)methyl]-1H-pyrrol-3-yl}carbonyl)pyrimidin-4-yl]amino}cyclopentyl]methyl sulfamate]
IC50: 10 to 100 nM | Percent Inhibition (0.111 µM): 91%

NS(=O)(=O)OC[C@H]1C[C@@H](Nc2ncncc2C(=O)c2ccn(Cc3ccc(Cl)cc3)n2)C[C@@H]1O [Compound I-47, {(1R,2S,4R)-4-[(5-{[1-{4-chlorobenzyl)-1H-pyrazol-3-yl]carbonyl}pyrimidin-4-yl)amino]-2-hydroxycyclopentyl}methyl sulfamate]
IC50: < 10 nM | inhibition at 0.111 µM: 98%

NS(=O)(=O)OC[C@H]1C[C@@H](Nc2ncncc2C(=O)c2ccn(CC#CC3(O)COC3)n2)C[C@@H]1O [Compound I-275, [(1R,2S,4R)-2-hydroxy-4-{[5-({1-[3-(3-hydroxyoxetan-3-yl)prop-2-yn-1-yl]-1H-pyrazol-3-yl}carbonyl)pyrimidin-4-yl]amino}cyclopentyl]methyl sulfamate]
IC50: 100 to 1000 nM | inhibition at 0.111 µM: 18%
